Measured values: publication PMC5124248, “Antitumor activity of TY-011 against gastric cancer by inhibiting Aurora A, Aurora B and VEGFR2 kinases” (Journal of Experimental & Clinical Cancer Research : CR, 2016)
Where two headings read alike, the source gives them in different places.

How the values were obtained:
Aurora B = biological target: T1, Aurora B (Homo sapiens, UniProt Q96GD4); assay: HTRF KinEASE-STK kinase assay, Aurora B; type: biochemical
T1 construct: gift from Professor Jia Li, Shanghai Institute of Materia Medica/Chinese Academy of Sciences
T1 sequence (Q96GD4 whole entry): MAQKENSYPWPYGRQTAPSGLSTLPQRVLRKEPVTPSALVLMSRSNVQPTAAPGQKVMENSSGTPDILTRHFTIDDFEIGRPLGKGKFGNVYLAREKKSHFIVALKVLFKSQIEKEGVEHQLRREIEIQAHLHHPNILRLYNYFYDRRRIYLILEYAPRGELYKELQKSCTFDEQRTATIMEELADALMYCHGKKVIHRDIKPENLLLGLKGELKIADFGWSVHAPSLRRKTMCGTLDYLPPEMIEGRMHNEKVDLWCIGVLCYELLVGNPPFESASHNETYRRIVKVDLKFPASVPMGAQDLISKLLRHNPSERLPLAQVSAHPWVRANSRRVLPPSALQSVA
Source text: The inhibition of TY-011 on activity of Aurora A, Aurora B and VEGFR2 was characterized by HTRF® KinEASE™-STK/TK kit according to the manufacturer’s instructions (Cisbio Assays, Codolet, France). Aurora A and Aurora B were gifts from Professor Jia Li, Shanghai Institute of Materia Medica/Chinese Academy of Sciences. VEGFR2 was purchased from Carna Biosciences (Kobe, Japan).

SNU-16 cells = assay: CCK-8 cell proliferation assay, SNU-16; type: cell-based; details: Homo sapiens; SNU-16, CCK-8, Fig. 3
Protocol: (§1) During the logarithmic growth phase, each cell line was seeded in a 96-well tissue culture plate (Thermo Fisher Scientific, Waltham, MA, USA) at a predetermined density in complete medium, attached overnight and treated with compound for the indicated time. The medium was discarded and replaced with 10% CCK-8 (Dojindo, Kumamoto, Japan) in complete medium, then incubated the plates for another 2 h. The OD450 was measured with SpectraMax M5 (Molecular Devices, CA, USA). A background absorbance of ODblank was subtracted from all wells. The survival rate was determined with following formula: Survival rate (%) = ODcompound/ODDMSO × 100%. The IC50 values were calculated by concentration − response curve fitting using the four parameter method.

MGC-803 cells = assay: CCK-8 cell proliferation assay, MGC-803; type: cell-based; details: Homo sapiens
Protocol: as §1

SGC-7901 cells = assay: Cell cycle analysis by flow cytometry, SGC-7901; type: cell-based, human
Protocol: Cell cycle distribution was determined by flow cytometry measurement of DNA content after cells were incubated with RNase A (50 μg/ml) and propidium iodide (50 μg/ml). The cellular DNA content was measured on a flow cytometer (Guava EasyCyte 6HT-2 L, Merck Millipore, Billerica, MA, USA). The percentage of each population was analyzed using the InCyte software. At least 20 000 cells were analyzed for each data point.

[1] = tested on: p-Histone H3 (S10), substrate of Aurora B; assay: Cellular Histone H3 phosphorylation (western blot, immunofluorescence) in MGC-803 cells; type: cell-based, human
Protocol: The proteins of whole cell lysates were prepared in RIPA buffer containing protease and phosphatase inhibitors (Thermo Fisher Scientific, Waltham, MA, USA), and quantified by the bicinchoninic acid (BCA) method. Immunoblotting analysis of proteins in cell lysates was performed as previously described. Primary antibodies used were as follows: anti-Aurora A (#12100), anti-p-Aurora A (Thr288) (#3079), anti-Histone H3 (#4499), and anti-p-Histone H3 (Ser10) (#9701), and anti-cleaved caspase 3 (#9661) were purchased from Cell Signaling Technology (Danvers, MA, USA); anti-PARP-1 (#sc-8007) and anti-GAPDH (#sc-25778) were purchased from Santa Cruz (CA, USA).
Cells were cultured on glass slides coated with 0.05 mg/ml PDL (Sigma-aldrich, St. Louis, MO, USA) in the presence of TY-011 (0.8 μM) or equivalent amount of DMSO for 24 h. The cells were fixed in 4% paraformaldehyde at room temperature, then permeabilized with 0.15% Triton-X100 and blocked in 3% BSA in PBS. The primary antibodies were incubated with slides at 1:100 dilution in PBS containing 3% BSA in a wet chamber at 4 °C overnight. […] The images were captured with FCFM (fluorescence confocal microscope) (Olympus FV1000 IX81, Tokyo, Japan) under appropriate excitation and emission filters or phase-contrast microscope (Olympus IX73, Tokyo, Japan). […]

[2] = tested on: MGC-803 xenograft tumor tissues; assay: TUNEL staining of xenograft tumor tissues; type: in vivo, BALB/c nu/nu mice; details: 9 mg/kg
Source text: Female BALB/c nu/nu mice (5–6 weeks, 16–18 g) were obtained from Sino-British SIPPR/BK Lab. Animal Ltd, Shanghai, China, with the certification number of 2008001638201. The animals were housed in specific pathogen-free (SPF) conditions at Key Laboratory of Brain Functional Genomics, Ministry of Education, and were acclimatized for a week prior to use. Human MGC-803 xenografts were established by subcutaneously inoculating 5 × 10^6 cells into nude mice. When the tumors reached a mean group size of 100 ~ 150 mm^3, the mice were randomized into control and treatment groups to receive treatment accordingly. TY-011 was orally administered at 3, 6 and 9 mg/kg once a day for 13 days. […] The tumor growth was recorded with the measurement of length (L) and width (W) by caliper every other day, and calculated as tumor volume (V) = L × W^2/2. Meanwhile, the body weights of mice were recorded. The tumor volume at day n was expressed as relative tumor volume (RTV) according to the following formula: RTV% = (TVn/TV0) ×100%, where TVn is the tumor volume at day n and TV0 is the tumor volume at day 0. The therapeutic effect of treatment was calculated with formula T/C (%) = mean RTV of the treated group/mean RTV of the control group × 100%. […] The tumor regression of individual mouse was defined as the tumor volume at the end was less than the tumor volume when treatment was initiated. […]

With CCc1cc2c(cn1)C(c1ccccc1Cl)=Nc1c(n[nH]c1C)N2 [TY-011, 9-(2-chloro-phenyl)-6-ephyl-1-methyl-2,4-dihydro-2,3,4,7,10-pentaaza-benzo[f]azulene] the IC50 (Aurora B; Table S1, read-out: IC50 Aurora B) was 90 nM, the IC50 (Aurora B; mean ± SD of three independent experiments, read-out: Aurora B IC50) was 93.9 ± 33.7 nM and the IC50 (SNU-16 cells) was 90 ± 20 nM. It also gave an IC50 (MGC-803 cells; MGC-803, Table S1, proliferation, read-out: IC50 MGC-803) of 210 nM, an IC50 (MGC-803 cells; MGC-803, CCK-8, Fig. 3, read-out: IC50) of 190 ± 20 nM and a G2/M phase cells (SGC-7901 cells; SGC-7901, 0.5 μM, 12 h (from 31.6%)) of 45.1%. For the same compound, the “cells with >4 N DNA content” value (SGC-7901 cells; SGC-7901, 0.5 μM, 48 h) was 13.9%, the “proportion of cells with >4 N DNA content” value (SGC-7901 cells; SGC-7901, 1 μM, 24 h (6.7% no treatment)) was 14.7% and the “proportion of G2/M phase cells” value (SGC-7901 cells; SGC-7901, 1 μM, 24 h (34.0% no treatment)) was 78.6%. For the same compound, the “p-Histone H3 (S10), immunofluorescence” value ([1]; MGC-803, 0.8 μM, 24 h) was “decreased sharply”, the “phosphorylation of Histone H3 (S10), western blot” value ([1]; MGC-803 synchronized with nocodazole (100 nM) 16 h, then various concentrations for 24 h) was “strongly inhibited” and the “apoptosis in tumor tissues (TUNEL)” value [2] was “obvious increase in apoptosis”.
